Values of other authors as cited in patent publication US8257742B2, “Bisphosphonates for treating endometriosis” (Yissum Research Development Company of the Hebrew …, priority 2005, dated 2012).

Tested on: endometriosis explants
Details: in vivo

In the case of C=CCn1c(=O)n([C@@H]2O[C@H](CO)[C@@H](O)[C@H]2O)c2nc(N)[nH]c(=O)c21 [loxoribine, Loxoribine], the “regression of endometriosis explants” value is given as “Regression of endometriosis explants was observed”.
